Assay in all cases: NCI tumour cell line growth inhibition, 48 h
Test [1] relates to ACHN renal.
The test system of test [2] is HOP-62 NSCLC.
In test [3] the test system is MOLT-4 leukemia.
Test [4] has as its system NCI/ADR-RES ovarian.
Test [5] has as its system OVCAR-3 ovarian.
Test [6] relates to OVCAR-5 ovarian.
Test [7] relates to RXF 393 renal.
Test [8] deals with SF-295 CNS.
Test [9] concerns SNB-75 CNS.
In test [10] the test system is SW-620 colon.

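Each compound was tested at five concentrations against cells in 96-well plates for 48 hours. GI50 marks 50% less growth. At the TGI there is no net growth.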 A value given as a limit tells only on which side of the number the result lay.

Consider `NS(=O)(=O)c1ccc(N=Nc2c(O)[nH]c3ccc(C(=O)NCCc4cnc[nH]4)cc23)cc1`, for which the GI50 in test [1], in test [2], in test [3], in [4], in test [5] and in test [6] was more than 25 µM throughout. Also, the GI50 in test [7], in test [8], in [9] and in [10] was more than 25 µM in each case. Also, the TGI in test [1], in test [2], in test [3], in test [4], in test [5] and in test [6] was more than 25 µM each time. In addition, the TGI in test [7], in test [8], in [9] and in test [10] was more than 25 µM each time.

Take `NC(CP(=O)(O)O)C(=O)O` (centres undefined): the TGI in [1], in test [2], in test [3], in test [4], in [5] and in test [6] was more than 100 µM in each case. For the same molecule, the TGI in [7], in [8], in test [9] and in test [10] was more than 100 µM in each case.

Regarding `Cc1cc(O[C@@H]2O[C@@H](C)[C@H](O)[C@@H](O)[C@H]2O)c2c3c(c(O[C@@H]4O[C@@H](C)[C@H](O)[C@@H](O)[C@H]4O)cc2c1)C(=O)c1c(O)cccc1C3=O`, the GI50 in test [1], in test [2], in [3], in [4], in test [5] and in [6] was more than 30 µM throughout. Further, the GI50 in test [7], in test [8], in [9] and in [10] was more than 30 µM each time. Moreover, the TGI in test [1], in test [2], in test [3], in test [4], in test [5] and in test [6] was more than 30 µM in each case. In addition, the TGI in [7], in test [8], in test [9] and in [10] was more than 30 µM in each case.

With `CC(=O)OC1CC2C(C)(C)CCC[C@]2(C)C2=C1C(O)=C(C(C)C)C(=O)C2=O` (some centres undefined), the GI50 was 0.465 µM in test [1]; 2.13 µM in test [2]; 1.4 µM in test [3]; 0.817 µM in [4]; 1.52 µM in [5]; 1.44 µM in test [6]. The GI50 in test [7] was 0.254 µM; in test [8], 0.644 µM; in test [9], 1.2 µM; in test [10] it was 0.911 µM. The TGI was 1.66 µM in test [1]; 4.47 µM in [2]; more than 30.8 µM in [3]; 5.13 µM in [4]; 4.53 µM in test [5]; 3.79 µM in test [6]. Besides, the TGI stood at 1.02 µM in test [7], 2.57 µM in test [8], 3.03 µM in test [9] and 2.92 µM in test [10].

Regarding `COc1ccc(C2=NN(C=O)C(c3ccc(OS(=O)(=O)c4ccc(C)cc4)c(OC)c3)C2)cc1` (centres undefined), the GI50 is 10.1 µM in [1]; 9.47 µM in test [2]; 5.23 µM in test [3]; 4.5 µM in [4]; 5.6 µM in test [5]; more than 100 µM in test [6]. Also, the GI50 was 3.81 µM in test [7], 3.58 µM in test [8], 3.33 µM in [9] and 5.31 µM in test [10]. Moreover, the TGI in test [1] is more than 100 µM; in [2] it was 74 µM; in test [3], more than 100 µM; in test [4], more than 100 µM; in test [5], more than 100 µM; in [6] it was more than 100 µM. The TGI was 46.8 µM in test [7], 25.2 µM in test [8], 25.1 µM in test [9] and more than 100 µM in test [10].

On to `COc1ccc(C2CC(c3ccccc3)=NN2C(=O)c2cc(OC)c(OC)c(OC)c2)cc1O` (centres undefined), for which the GI50 is 0.816 µM in test [1]; 0.397 µM in test [2]; 0.469 µM in test [3]; 0.552 µM in [4]; 0.326 µM in [5]; 8.43 µM in test [6]. In addition, the GI50 in [7] is 0.317 µM; in test [8], 0.366 µM; in [9] it was 0.422 µM; in test [10] it was 0.415 µM. The TGI was 58.1 µM in test [1]; 5.21 µM in [2]; 16.2 µM in test [3]; 3.99 µM in [5]; more than 65.5 µM in test [6]; 0.84 µM in test [7]. Besides, the TGI is more than 38.5 µM in test [8], more than 100 µM in [9] and more than 55.7 µM in test [10].

Consider `CC(C)(C)[Si](C)(C)OC1[C@@H](O[Si](C)(C)C(C)(C)C)[C@@H](CNC(=O)NC(=O)NC(=O)CCl)O[C@H]1n1cnc2c(NC(=O)Nc3ccccc3)ncnc21` (some centres undefined), for which the GI50 in test [1] was 5.03 µM; in test [2], 1.66 µM; in test [3], 1.17 µM; in test [4] it was 6.45 µM; in [5], 1.82 µM; in test [6], 6.41 µM. For the same molecule, the GI50 in test [7] was 2.13 µM; in [8], 4.91 µM; in [9], 5.84 µM; in [10] it was 3.52 µM. The TGI stood at 12.2 µM in test [1]; 4.8 µM in [2]; 2.53 µM in test [3]; 15.9 µM in test [4]; 4.87 µM in test [5]; 14.1 µM in test [6]. For the same molecule, the TGI in test [7] was 6.88 µM; in [8], 15 µM; in test [9], 13.9 µM; in test [10], 11.6 µM.

The values above are taken from PubChem BioAssay (NCI).
